US20260240926A1, “METHOD OF MAKING A PROBIOTIC FERMENTED PRODUCT” (UNIVERSITY OF SOUTH FLORIDA, priority 2023, published 2026)

Tested on: C57BL/6 mice
Experiment: Chemotherapy (5-FU) induced dysbiosis model in C57BL/6 mice
Format: in vivo
Conditions: 5-FU alone
Procedure: Based on previous studies, a model of chemotherapy induced dysbiosis in C57BL/6 mice using 5-Fluorouracil (5-FU) chemotherapy was established. 5-FU accelerated body weight loss (FIG. 16A), reduced microbiome diversity (FIG. 16B), increased gut permeability (FIG. 16C), damaged intestinal villi in the ileum (FIG. 16D), and impaired cognitive function (FIG. 16E). […] It was determined where the PFM has more significant protective effects compared to non-fermented probiotics (same four strains suspended in saline, instead of fermented in milk).

cognitive function: impaired | microbiome diversity: reduced
Structure (SMILES): O=c1[nH]cc(F)c(=O)[nH]1 [5-FU, 5-Fluorouracil]
body weight loss: accelerated | intestinal villi in the ileum: damaged
